From patent US7576112B2, “Therapeutic N-aryl or N-heteroaryl pyrazolidine and pyrazolidinone derivatives” (Allergan, Inc., priority 2006, dated 2009)

What was measured:
[1] = biological target: T1, EP2 (Homo sapiens, UniProt P43116); assay: EP2 flipr functional assay; assay type: cell-based
Text: (§1) U.S. patent application Ser. No. 11/553,143, filed on Oct. 26, 2006, incorporated by reference herein, describes the methods used to obtain the in vitro data in the table below.

[2] = biological target: T1, EP2; assay: EP2 cAMP assay; assay type: cell-based
Text: as §1

[3] = biological target: T1, EP2; assay: EP2 binding (Ki)
Text: as §1

[4] = biological target: EP4 (Homo sapiens, UniProt P35408); assay: EP4 binding (Ki)
Text: as §1

[5] = biological target: T2, hEP3A (Homo sapiens, UniProt P43115); assay: Other receptors functional assay, hEP3A; assay type: cell-based
T2 sequence (P43115 1-390): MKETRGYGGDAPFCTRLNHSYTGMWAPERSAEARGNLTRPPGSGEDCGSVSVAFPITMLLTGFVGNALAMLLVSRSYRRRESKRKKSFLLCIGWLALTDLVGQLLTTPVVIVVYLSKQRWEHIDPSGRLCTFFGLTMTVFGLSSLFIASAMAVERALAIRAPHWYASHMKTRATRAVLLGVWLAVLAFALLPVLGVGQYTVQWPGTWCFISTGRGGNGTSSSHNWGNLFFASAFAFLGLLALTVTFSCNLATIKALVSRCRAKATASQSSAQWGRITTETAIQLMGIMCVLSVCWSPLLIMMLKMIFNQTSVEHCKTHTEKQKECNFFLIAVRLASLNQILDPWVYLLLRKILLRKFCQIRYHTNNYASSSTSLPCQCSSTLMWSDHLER
Text: as §1

T1 sequence (P43116 whole entry): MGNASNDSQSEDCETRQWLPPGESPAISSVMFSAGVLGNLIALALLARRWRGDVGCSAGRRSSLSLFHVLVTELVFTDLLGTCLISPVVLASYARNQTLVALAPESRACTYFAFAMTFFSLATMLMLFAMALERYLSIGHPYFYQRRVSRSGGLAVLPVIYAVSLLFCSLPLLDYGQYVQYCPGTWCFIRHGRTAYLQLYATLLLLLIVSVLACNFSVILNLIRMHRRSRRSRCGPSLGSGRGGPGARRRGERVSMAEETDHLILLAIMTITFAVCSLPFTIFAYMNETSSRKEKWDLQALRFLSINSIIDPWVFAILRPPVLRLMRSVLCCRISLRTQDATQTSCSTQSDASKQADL
EP4, sequence (P35408 whole entry): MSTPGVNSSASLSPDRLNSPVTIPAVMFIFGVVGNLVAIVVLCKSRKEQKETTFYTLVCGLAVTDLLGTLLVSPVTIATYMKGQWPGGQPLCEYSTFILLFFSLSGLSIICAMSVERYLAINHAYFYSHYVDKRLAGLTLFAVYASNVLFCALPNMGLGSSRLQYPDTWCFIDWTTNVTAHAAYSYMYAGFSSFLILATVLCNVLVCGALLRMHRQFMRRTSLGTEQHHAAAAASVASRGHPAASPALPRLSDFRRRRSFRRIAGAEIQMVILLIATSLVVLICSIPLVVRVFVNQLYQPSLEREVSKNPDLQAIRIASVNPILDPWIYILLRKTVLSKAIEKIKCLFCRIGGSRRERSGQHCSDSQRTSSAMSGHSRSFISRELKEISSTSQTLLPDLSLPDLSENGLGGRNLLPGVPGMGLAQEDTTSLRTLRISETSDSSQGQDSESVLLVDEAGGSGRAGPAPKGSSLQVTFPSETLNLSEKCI

**Q.** `CCCCC[C@H](O)c1ccc(N2C(=O)CCN2CCCc2ccc(C(=O)O)s2)cc1` (stereo in doubt) [5-(3-(2-(4-(1-hydroxyhexyl)phenyl)-3-oxopyrazolidin-1-yl)propyl)thiophene-2-carboxylic Acid] was tested. Which EC50 [1] did it give?
**A.** 79 nM

**Q.** And the EC50 [2]?
**A.** 1.8 nM

**Q.** And the Ki [3]?
**A.** 251 nM

**Q.** And the Ki [4]?
**A.** > 10000 nM

**Q.** What about the EC50 [5] of the same compound?
**A.** 5070 nM
